Measured values taken from ChEMBL document CHEMBL5537137, “Design, synthesis and biological evaluation of biaryl amide derivatives against SARS-CoV-2 with dual-target mechanism” (Eur J Med Chem, 2024).

Columns and labels:
[1] = Cytotoxicity against human NCI-H460 cells incubated for 72 hrs by CCK-8 assay
in vitro = conditions: human, NCI-H460 cells
Description: Selectivity index, ratio of CC50 for cytotoxicity against human NCI-H460 cells to EC50 for antiviral activity against HCoV-OC43 VR-1558 infected in human NCI-H460 cells

Human coronavirus OC43 [2] = assay: microbe, parasite or virus in culture; conditions: Betacoronavirus 1, VR-1558, NCI-H460, 72 h
Description: Antiviral activity against HCoV-OC43 VR-1558 infected in human NCI-H460 cells assessed as inhibition of viral growth incubated for 72 hrs by CCK-8 assay

[3] = biological target: Replicase polyprotein 1ab (Severe acute respiratory syndrome coronavirus 2, UniProt P0DTD1)
Description: Binding affinity to CM5 sensor chip immobilized SARS-CoV-2 3CL protease assessed as dissociation constant by SPR analysis

Human coronavirus OC43 [4] = assay: microbe, parasite or virus in culture; conditions: Betacoronavirus 1, A549, 96 h
Description: Antiviral activity against HCoV-OC43 infected in human A549 cells assessed as inhibition of viral growth incubated for 4 days

[5] = Cytotoxicity against human Huh7.5 cells
SARS-CoV-2 = assay: microbe, parasite or virus in culture; conditions: Severe acute respiratory syndrome coronavirus 2, IC19/2020, Vero, 48 h
Description: Antiviral activity against SARS-CoV-2 IC19/2020 infected in Vero cells assessed as inhibition of viral growth incubated for 48 hrs by plaque assay

[6] = Cytotoxicity against human H9 cells

| SMILES | CC50 at 72 h [1] | selectivity ratio (in vitro) | EC50 (Human coronavirus OC43 [2]) | Kd [3] | EC50 (Human coronavirus OC43 [4]) | CC50 [5] | EC50 (SARS-CoV-2) | CC50 [6] |
| --- | --- | --- | --- | --- | --- | --- | --- | --- |
| COc1ccc(C(=O)Nc2ccc(CN3CC(N(C)C)C3)c(C(F)(F)F)c2)cc1[N+](=O)[O-] | > 200 µM | > 17 | 12.1 µM |  |  |  |  |  |
| CN1CCN(Cc2ccc(NC(=O)c3ccc(OCCCCl)c(NS(C)(=O)=O)c3)cc2C(F)(F)F)CC1 | 38.5 µM | 3 | 12.8 µM |  |  |  |  |  |
| CN(C)C1CN(Cc2ccc(NC(=O)c3ccc(OCCF)c([N+](=O)[O-])c3)cc2C(F)(F)F)C1 | 75.2 µM | 25.7 | 2.93 µM |  |  |  |  |  |
| CN(C)C1CN(Cc2ccc(NC(=O)c3ccc(OCC(F)F)c([N+](=O)[O-])c3)cc2C(F)(F)F)C1 | 34.1 µM | 8 | 4.51 µM |  |  |  |  |  |
| CCOc1ccc(C(=O)Nc2ccc(CN3CC(N(C)C)C3)c(C(F)(F)F)c2)cc1[N+](=O)[O-] | > 200 µM | > 108 | 1.85 µM | 17.1 µM |  |  |  |  |
| Cc1ccc(NC(=O)c2ccc(CN3CCN(C)CC3)cc2)cc1Nc1nc(-c2cccnc2)cs1 [MASITINIB] |  |  |  |  | 2.1 µM |  |  |  |
| COc1ccc(C(=O)Nc2ccc(OC3CC(N(C)C)C3)cc2C(F)(F)F)cc1[N+](=O)[O-] (stereo unspecified) | 99.5 µM | 3 | 28.6 µM |  |  |  |  |  |
| CN(C)C1CCN(Cc2ccc(NC(=O)c3ccc(OCCCCl)c([N+](=O)[O-])c3)cc2C(F)(F)F)C1 (stereo unspecified) | 28.2 µM | 2.9 | 9.76 µM |  |  |  |  |  |
| CN1CCN(Cc2ccc(NC(=O)c3ccc(OO)c([N+](=O)[O-])c3)cc2C(F)(F)F)CC1 | > 200 µM | > 8 | 26.2 µM |  |  |  |  |  |
| CC1CN(Cc2ccc(NC(=O)c3ccc(OCCCCl)c([N+](=O)[O-])c3)cc2C(F)(F)F)CC(C)O1 (stereo unspecified) | 4.69 µM | 2 | 2.49 µM |  |  |  |  |  |
| COc1ccc(C(=O)Nc2ccc(CN3CCN(C)CC3)c(C(F)(F)F)c2)cc1S(N)(=O)=O | 123 µM | 6.17 | 19.9 µM |  |  |  |  |  |
| CN(C)C1CN(Cc2ccc(NC(=O)c3ccc(OCc4cc(C(F)(F)F)cc(C(F)(F)F)c4)c([N+](=O)[O-])c3)cc2C(F)(F)F)C1 | 5.07 µM | < 1.7 | > 3.13 µM |  |  |  |  |  |
| CN1CCN(Cc2ccc(NC(=O)c3ccc(OCCCCl)c([N+](=O)[O-])c3)cc2C#N)CC1 | 136 µM | 11.2 | 12.1 µM |  |  |  |  |  |
| CN1CCN(Cc2ccc(NC(=O)c3ccc(OCCCCl)c(S(=O)(=O)O)c3)cc2C(F)(F)F)CC1 | > 200 µM | 7 | 36.8 µM |  |  |  |  |  |
| CCC(=O)Nc1cc(C(=O)Nc2ccc(CN3CC(N(C)C)C3)c(C(F)(F)F)c2)ccc1OCCCCl | 96.2 µM | 4.3 | 22.2 µM |  |  |  |  |  |
| C=CCOc1ccc(C(=O)Nc2ccc(CN3CC(N(C)C)C3)c(C(F)(F)F)c2)cc1[N+](=O)[O-] | 28.1 µM | 4 | 7.61 µM |  |  |  |  |  |
| CC(C)Oc1ccc(C(=O)Nc2ccc(CN3CCN(C)CC3)c(C(F)(F)F)c2)cc1[N+](=O)[O-] | 19.2 µM | 5.4 | 3.54 µM |  |  |  |  |  |
| CCC(=O)Nc1cc(C(=O)Nc2ccc(CN3CCN(C)CC3)c(C(F)(F)F)c2)ccc1OCCCCl | 27.1 µM | 4.73 | 5.74 µM |  |  |  |  |  |
| CN1CCN(Cc2ccc(NC(=O)c3ccc(OCCCCl)c(S(N)(=O)=O)c3)cc2C(F)(F)F)CC1 | 40.4 µM | 9.8 | 4.11 µM |  |  |  |  |  |
| CN(C)C1CCN(Cc2ccc(NC(=O)c3ccc(OCCCCl)c([N+](=O)[O-])c3)cc2C(F)(F)F)CC1 | 18.5 µM | 4.7 | 3.93 µM |  |  |  |  |  |
| CN1CCN(Cc2ccc(NC(=O)c3ccc(OCCCCl)c([N+](=O)[O-])c3)cn2)CC1 | 43.7 µM | 2.3 | 19.2 µM |  |  |  |  |  |
| CN(C)C1CN(Cc2ccc(NC(=O)c3ccc(OCC4CC4)c([N+](=O)[O-])c3)cc2C(F)(F)F)C1 | 14.6 µM | 14.5 | 1.01 µM |  |  |  |  |  |
| CN1CCN(Cc2ccc(NC(=O)c3ccc(OCCCCl)c([N+](=O)[O-])c3)cc2C(F)(F)F)CC1 | 15 µM | 6.1 | 2.47 µM |  |  |  |  |  |
| CN(C)C1CCN(Cc2ccc(NC(=O)c3ccc(OCC4CC4)c([N+](=O)[O-])c3)cc2C(F)(F)F)CC1 | 14.2 µM | 11 | 1.24 µM |  |  |  |  |  |
| CN1CCN(CCCNC(=O)C2CN(Cc3ccc(NC(=O)c4ccc(OCCCCl)c([N+](=O)[O-])c4)cc3C(F)(F)F)C2)CC1 | 59.1 µM | 3.2 | 18.6 µM |  |  |  |  |  |
| CN1CCN(Cc2ccc(NC(=O)c3ccc(OCCCl)c([N+](=O)[O-])c3)cc2C(F)(F)F)CC1 | 13 µM | 3.5 | 3.73 µM |  |  |  |  |  |

| SMILES | CC50 at 72 h [1] | selectivity ratio (in vitro) | EC50 (Human coronavirus OC43 [2]) | Kd [3] | EC50 (Human coronavirus OC43 [4]) | CC50 [5] | EC50 (SARS-CoV-2) | CC50 [6] |
| --- | --- | --- | --- | --- | --- | --- | --- | --- |
| COc1ccc(C(=O)Nc2ccc(OC3CC(N(C)C)C3)c(C(F)(F)F)c2)cc1[N+](=O)[O-] (stereo unspecified) | 139 µM | 7 | 19.5 µM |  |  |  |  |  |
| CN1CCN(Cc2ccc(NC(=O)c3ccc(OCCCCl)c(F)c3)cc2C(F)(F)F)CC1 | 13.4 µM | 3 | 5.34 µM |  |  |  |  |  |
| CC1CC(C)CN(CCCNC(=O)C2CN(Cc3ccc(NC(=O)c4ccc(OCCCCl)c([N+](=O)[O-])c4)cc3C(F)(F)F)C2)C1 (stereo unspecified) | 14.9 µM | 4.7 | 3.18 µM |  |  |  |  |  |
| CN1CCN(Cc2ccc(NC(=O)c3ccc(OCCCF)c([N+](=O)[O-])c3)cc2C(F)(F)F)CC1 | 17.8 µM | 7 | 2.45 µM |  |  |  |  |  |
| CCOc1ccc(C(=O)Nc2ccc(OC3CC(N(C)C)C3)c(C(F)(F)F)c2)cc1[N+](=O)[O-] (stereo unspecified) | 55.4 µM | 17.9 | 3.09 µM |  |  |  |  |  |
| O=C(Nc1ccc(CN2CC(C(=O)O)C2)c(C(F)(F)F)c1)c1ccc(OCCCCl)c([N+](=O)[O-])c1 | > 200 µM |  | > 66.7 µM |  |  |  |  |  |
| CN(C)C1CC(Oc2ccc(NC(=O)c3ccc(OCC4CC4)c([N+](=O)[O-])c3)cc2C(F)(F)F)C1 (stereo unspecified) | 8.51 µM | 7 | 1.24 µM |  |  |  |  |  |
| CN(C)C1CN(Cc2ccc(NC(=O)c3ccc(OCCCl)c([N+](=O)[O-])c3)cc2C(F)(F)F)C1 | 19.2 µM | 6.5 | 2.97 µM |  |  | 6.47 µM |  |  |
| CC(C)C(=O)OC[C@H]1O[C@@H](n2ccc(NO)nc2=O)[C@H](O)[C@@H]1O [MOLNUPIRAVIR] | 18.3 µM | 102 | 0.18 µM |  |  |  |  |  |
| CN(C)C1CN(Cc2ccc(NC(=O)c3ccc(OCC45CC6CC(CC(C6)C4)C5)c([N+](=O)[O-])c3)cc2C(F)(F)F)C1 | 4.63 µM | < 1.7 | > 3.13 µM |  |  |  |  |  |
| CN(C)C1CC(Oc2ccc(NC(=O)c3ccc(OCC45CC6CC(CC(C6)C4)C5)c([N+](=O)[O-])c3)cc2C(F)(F)F)C1 (stereo unspecified) | 2.51 µM | < 1.7 | > 1.56 µM |  |  |  |  |  |
| Cc1ccc(NC(=O)c2ccc(OCCCCl)c([N+](=O)[O-])c2)cc1C(F)(F)F | 82.4 µM | 21 | 3.83 µM |  |  |  |  |  |
| COc1ccc(C(=O)Nc2ccc(CN3CCN(C)CC3)c(C(F)(F)F)c2)cc1[N+](=O)[O-] | 30.4 µM | 10.8 | 2.81 µM |  |  |  |  |  |
| CN1CCN(Cc2ccc(NC(=O)c3ccc(OCCF)c([N+](=O)[O-])c3)cc2C(F)(F)F)CC1 | 24.5 µM | 9 | 2.64 µM |  |  |  |  |  |
| CCC(=O)Nc1cc(C(=O)Nc2ccc(CN3CCN(C)CC3)nc2)ccc1OCCCCl | 82.7 µM | 2 | 41.5 µM |  |  |  |  |  |
| CN(C)C1CN(Cc2ccc(NC(=O)c3ccc(OCCCCl)c([N+](=O)[O-])c3)cc2C(F)(F)F)C1 | 49.8 µM | 6 | 8.64 µM |  |  |  |  |  |
| CN(C)C1CC(Oc2ccc(NC(=O)c3ccc(OCC(F)F)c([N+](=O)[O-])c3)cc2C(F)(F)F)C1 (stereo unspecified) | 34.3 µM | 13 | 2.58 µM |  |  |  |  |  |
| CN1CCN(Cc2ccc(NC(=O)c3ccc(OCCCCl)c(C(F)(F)F)c3)cc2C(F)(F)F)CC1 | 6.2 µM | 2 | 2.94 µM |  |  |  |  |  |
| CN(C)C1CC(Oc2ccc(NC(=O)c3ccc(OCCC(F)(F)F)c([N+](=O)[O-])c3)cc2C(F)(F)F)C1 (stereo unspecified) | 31.3 µM | 16 | 2.01 µM |  |  |  |  |  |
| CN(C)C1CC(Oc2ccc(NC(=O)c3ccc(O)c([N+](=O)[O-])c3)cc2C(F)(F)F)C1 (stereo unspecified) | 186 µM | 7 | 27.2 µM |  |  |  |  |  |
| O=C(Nc1ccc([N+](=O)[O-])cc1Cl)c1cc(Cl)ccc1O [NICLOSAMIDE] |  |  |  |  |  |  | 0.4 µM |  |
| CN(C)C1CC(Oc2ccc(NC(=O)c3ccc(OCc4cc(C(F)(F)F)cc(C(F)(F)F)c4)c([N+](=O)[O-])c3)cc2C(F)(F)F)C1 (stereo unspecified) | 17 µM | 1 | 11.7 µM |  |  |  |  |  |
| COc1ccc(C(=O)Oc2cc(OC)c(OC)c(OC)c2)cc1NC(=O)C(C)Br (stereo unspecified) |  |  |  |  |  |  |  | 3.64 µM |
| CN(C)C1CC(Oc2ccc(NC(=O)c3ccc(OCCF)c([N+](=O)[O-])c3)cc2C(F)(F)F)C1 (stereo unspecified) | 27.1 µM | 15 | 1.79 µM |  |  |  |  |  |
| CN(C)C1CC(Oc2ccc(NC(=O)c3ccc(OCCCl)c([N+](=O)[O-])c3)cc2C(F)(F)F)C1 (stereo unspecified) | 9.94 µM | 9.1 | 1.09 µM |  |  |  |  |  |
| CN1CCN(Cc2ccc(NC(=O)c3ccc(F)c(C(F)(F)F)c3)cc2C(F)(F)F)CC1 | 14.5 µM | 3 | 4.15 µM |  |  |  |  |  |
